Data as given in patent US20110257146A1, “Method of Treating Kcnq Related Disorders Using Organozinc Compounds” (The johns Hopkins University, priority 2006, published 2011).
Entries after “also recorded” stand apart in the source; their conditions may differ.

Legend:
Assay type in all cases: cell-based
KCNQ1 = molecular target: T1, KCNQ1 (Homo sapiens, UniProt P51787); experiment: Whole-cell voltage clamp of CHO cells expressing KCNQ1; conditions: 10 μM ZnPy, extracellular
T1 construct: expressed in transfected cells; host or cells: CHO cells
Protocol: (§1) Cell culture and transient transfection—Chinese Hamster Ovary (CHO) cells were grown in 50/50 DMEM/F12 (Cellgro) with 10% FBS (Gibco), 100 U/ml penicillin (Cellgro), 100 μg/ml streptomycin (Cellgro) and 2 mM L-glutamine (Gibco). At 24 hours before transfection, cells were split and plated in 60 mm dishes and were transfected with Lipofectamine2000™ reagent (Invitrogen) according to the manufacturer's instruction. At 24 hours after transfection, cells were split and re-plated onto coverslips coated with poly-L-lysine (Sigma). Plasmid expressing CD4 cDNA as a marker was cotransfected with the channel cDNAs of hKCNQ1 (from Dr. Michael Sanguinetti), hKCNQ4 (from Dr. Vitya Vardanyan), rKCNQ2, rKCNQ3, and hKCNQ5 (from Drs. David McKinnon, Mark Shapiro, and Thomas Jentsch). Prior to recording, anti-CD4 Dynabeads (Dynal. Biotech. Inc.) were added into the medium to allow for identification of the transfected cells. Stable lines expressing Kv2.1, hERG, and Kv4.2 were generated by standard protocols using pcDNA3.1 and maintained at complete medium supplemented with 500 μg/ml G418. […]
(§2) Electrophysiological Recording—Standard whole-cell recording was used. […] Current and voltage were recorded using an Axopatch-200A amplifier, filtered at 1 kHz and digitized using a DigiData 1322A with pClamp 9.2 software (Axon Instruments, Foster City, Calif.). […]

[1] = molecular target: T2, Kv4.2 A-type potassium channel (Homo sapiens, UniProt Q9NZV8); experiment: Channel activity in Kv4.2 stable line
T2 construct: expressed in transfected cells
Protocol: as §1, §2

KCNQ2(L249A/L275A) = molecular target: T3, KCNQ2(L249A/L275A) (Rattus norvegicus, UniProt O88943, L249A/L275A); experiment: Whole-cell recording of KCNQ2(L249A/L275A) mutant
T3 construct: expressed in transfected cells
Source text: (§3) FIG. 9. KCNQ2 point mutants selectively lose ZnPy sensitivity. […] Each mutation site was indicated based on the predicted transmembrane regions. Dashed line indicates the potentiation level of wt KCNQ2 channel in the absence of ZnPy. […] C. Modeling of the S5-pore-S6 region of KCNQ2.
(§4) Mutagenesis—Starting from KCNQ cDNAs, the KCNQ2 point mutants were constructed by recombinant PCR and verified by sequencing.
(§5) Electrophysiological Recording—Standard whole-cell recording was used. Pipettes were pulled from borosilicate glass capillaries (TW150-4, World Precision Instruments, Sarasota, Fla.). When filled with the intracellular solution, the pipettes have resistances of […]. During the recording, constant perfusion of extracellular solution was maintained using a BPS perfusion system (ALA, Westbury, N.Y.). Pipette solution contained (mM): KCl 145, MgCl2 1, EGTA 5, HEPES 10, MgATP 5 (pH 7.3); extracellular solution contained (mM): NaCl 140, KCl 3, CaCl2 2, MgCl2 1.5, HEPES 10, glucose 10 (pH 7.4). Current and voltage were recorded using an Axopatch-200A amplifier, filtered at 1 kHz and digitized using a DigiData 1322A with pClamp 9.2 software (Axon Instruments, Foster City, Calif.). Series resistance compensation was also used and set to 60-80%.

KCNQ2(A306T) = molecular target: T4, KCNQ2(A306T) (Rattus norvegicus, UniProt O88943, A306T); experiment: Whole-cell recording of KCNQ2(A306T) mutant in CHO cells
T4 construct: expressed in transfected cells; host or cells: CHO cells
Protocol: as §3
(§6) FIG. 11. ZnPy effects on BFNC mutant channels expressed in CHO cells. A. whole-cell currents of KCNQ2(R207W), KCNQ2(Y284C), and KCNQ2(A306T) were recorded in the absence (left) and presence (right) of 10 μM ZnPy, Vh was −80 mV, in 10 mV voltage steps from −70 mV to +50 mV. B. a histogram plotting potentiation effects on KCNQ2 wild type (wt) and BFNC mutants (R207W, Y284C and […]) by ZnPy (filled box) and retigabine (open box) (n≧4, * p<0.001, ** p<0.05).
as §4, §5

KCNQ2(R207W) = molecular target: T5, KCNQ2(R207W) (Rattus norvegicus, UniProt O88943, R207W); experiment: Whole-cell recording of KCNQ2(R207W) BFNC mutant in CHO cells; conditions: 10 μM ZnPy
T5 construct: expressed in transfected cells; host or cells: CHO cells, transient
Protocol: as §6, §4
as §5, with “Series resistance compensation was also used and set to 60-80%.” left out

T2 sequence (Q9NZV8 whole entry): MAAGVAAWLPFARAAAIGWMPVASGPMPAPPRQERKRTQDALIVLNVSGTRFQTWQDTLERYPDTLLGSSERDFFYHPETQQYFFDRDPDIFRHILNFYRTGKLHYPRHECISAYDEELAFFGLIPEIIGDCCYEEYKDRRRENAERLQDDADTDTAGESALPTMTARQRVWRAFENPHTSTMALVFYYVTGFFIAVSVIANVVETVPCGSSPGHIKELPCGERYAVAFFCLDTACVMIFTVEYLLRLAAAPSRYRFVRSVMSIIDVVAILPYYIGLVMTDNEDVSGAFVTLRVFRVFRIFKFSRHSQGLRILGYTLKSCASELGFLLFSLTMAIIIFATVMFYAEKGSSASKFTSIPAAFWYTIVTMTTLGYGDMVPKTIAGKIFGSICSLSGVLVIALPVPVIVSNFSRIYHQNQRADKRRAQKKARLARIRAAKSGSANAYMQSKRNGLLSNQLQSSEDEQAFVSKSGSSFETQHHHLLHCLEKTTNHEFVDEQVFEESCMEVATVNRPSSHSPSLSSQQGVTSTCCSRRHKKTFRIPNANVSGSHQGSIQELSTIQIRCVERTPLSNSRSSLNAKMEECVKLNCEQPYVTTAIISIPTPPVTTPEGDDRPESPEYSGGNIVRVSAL

S=c1ccccn1[O][Zn][O]n1ccccc1=S [ZnPy, Zinc Pyrithione] was tested, and the “effect on channel activity” value (KCNQ1) was “potentiated; also recorded: potentiates KCNQ1”, the “potentiation of channel activity” value [1] was “did not potentiate” and the “V1/2 shift caused by ZnPy” value (KCNQ2(L249A/L275A)) was “completely abolished the V1/2 shift”. For the same molecule, the “folds of current increase” value (KCNQ2(L249A/L275A); +50 mV, ZnPy) was 8.6±2.2 folds, the “effectiveness of current increase” value (KCNQ2(A306T); 10 μM ZnPy) was “less effective” and the “hyperpolarizing shift of V1/2” value (KCNQ2(A306T); ZnPy) was 24.1±3.1 mV. The “potentiation in Gmax” value (KCNQ2(A306T); ZnPy) was “little potentiation in Gmax” and the fold current increase (KCNQ2(R207W)) was “more than 3 fold”.
